From patent US7385041B2, “Dual functioning excipient for metal chelate contrast agents” (Bracco International B.V., priority 1990, dated 2008)

test system: Charles River CD-1 mice; assay: Intravenous acute tolerance in mice (LD50); conditions: intravenous (tail vein) at 0.02 mL/g, CD-1 mice, 14 days observation, physiologic pH
Procedure: The relative toxicities of free metal, free ligand, metal chelate contrast agent and excipient of the present invention were determined by injecting samples of each into the tail vein of Charles River CD-1 mice (18-23 g, 25-35 days) at 0.02 mL/g. The observation period was 14 days.

Row | SMILES | LD50
1 | [Ca+2].[Cl-].[Cl-] [CaCl2] | 1.5 mmol/kg
2 | O=C([O-])CN1CCNCCN(CC(=O)[O-])CCN(CC(=O)[O-])CC1.O=C([O-])CN1CCNCCN(CC(=O)[O-])CCN(CC(=O)[O-])CC1.[Ca+2].[Ca+2].[Ca+2] [Ca[Ca(DO3A)]2, Calcium bis[1,4,7,10-tetraazacyclododecane-1,4,7-triacetatocalcium(II)]] | 1.6 mmol/kg
3 | CC(O)CN1CCN(CC(=O)[O-])CCN(CC(=O)[O-])CCN(CC(=O)[O-])CC1.CC(O)CN1CCN(CC(=O)[O-])CCN(CC(=O)[O-])CCN(CC(=O)[O-])CC1.[Ca+2].[Ca+2].[Ca+2] (stereo not shown) [Ca[Ca(HP-DO3A)]2, Calcium bis[1,4,7-tris(carboxymethyl)-10-(2′-hydroxy)propyl-1,4,7,10-tetraazacyclododecanato-calcium(II)]] | 1.3 mmol/kg
4 | O=C(O)CN1CCN(CC(=O)O)CCN(CC(=O)O)CCN(CC(=O)O)CC1 [DOTA, 1,4,7,10-tetraazacyclododecane-N,N′N″,N″′-tetraacetic acid] | 0.18 mmol/kg
5 | O=C([O-])CN1CCNCCN(CC(=O)[O-])CCN(CC(=O)[O-])CC1.[Gd+3] [Gd(DO3A)] | 5.7 mmol/kg
6 | CC(O)CN1CCN(CC(=O)O)CCN(CC(=O)O)CCN(CC(=O)O)CC1.[Gd+3] (stereo not shown) [Gd(HP-DO3A), Gadolinium(III) 1,4,7-tris(carboxymethyl)-10-(2′-hydroxypropyl)-1,4,7,10-tetraazacyclododecane] | 10 mmol/kg
7 | [Gd+3].[OH-].[OH-].[OH-] [Gd(OH)3] | 0.1 mmol/kg

same assay, conditions: mouse, in vivo, iv

Row | SMILES | LD50
8 | O=C(O)CN1CCNCCN(CC(=O)O)CCN(CC(=O)O)CC1 [DO3A, 1,4,7,10-tetraazacyclododecane-1,4,7-triacetic acid] | 0.12 mmol/kg
9 | CC(O)CN1CCN(CC(=O)O)CCN(CC(=O)O)CCN(CC(=O)O)CC1 (stereo not shown) [HP-DO3A, 1,4,7-tris-(carboxymethyl)-10-(2′-hydroxypropyl)-1,4,7,10-tetraazacyclododecane] | 0.11 mmol/kg

same assay, conditions: summary of Table 1 data, intravenous in mice

Row | SMILES | Tolerance (in words)
10 | O=C([O-])CN1CCNCCN(CC(=O)[O-])CCN(CC(=O)[O-])CC1.[Gd+3] [Gd(DO3A)] | highly tolerated
